Measurements taken from ChEMBL document CHEMBL1914304 (J Med Chem, 2011).

Assays:
[1] = system: HEK293; experiment: Cytotoxicity against human HEK293 cells after 72 hrs by luminescence assay; assay type: cell-based; conditions: hek293, 72 h
[2] = system: HepG2; experiment: Cytotoxicity against human HepG2 cells after 72 hrs by luminescence assay; assay type: cell-based; conditions: hepg2, 72 h
[3] = Selectivity ratio of EC50 for human HepG2 cells to EC50 for Plasmodium falciparum
[4] = system: Raji; experiment: Cytotoxicity against human Raji cells after 72 hrs by luminescence assay; assay type: cell-based
[5] = system: BJ; experiment: Cytotoxicity against human BJ cells after 72 hrs by luminescence assay; assay type: cell-based

SMILES | Activity [1] | Activity [2] | selectivity ratio [3] | Activity [4] | Activity [5]
Cl.O=C(/C=C/c1ccccc1)c1ccccc1O | Non-toxic | Non-toxic | > 10 | Non-toxic | Non-toxic
Cl.O=C(/C=C/c1ccccc1)c1cc(F)ccc1O | Non-toxic | Non-toxic | > 10 | Non-toxic | Non-toxic
Cl.O=C(/C=C/c1ccc(F)cc1)c1ccccc1O | Non-toxic | Non-toxic | > 10 | Non-toxic | Non-toxic
Cl.O=C(/C=C/c1ccc(F)cc1)c1cc(F)ccc1O | Non-toxic | Non-toxic | > 10 | Non-toxic | Non-toxic
Cl.O=C(CCc1ccccc1)c1ccccc1O | Non-toxic | Non-toxic | > 10 | Non-toxic | Non-toxic
Cl.O=C(CCc1ccccc1)c1cc(F)ccc1O | Non-toxic | Non-toxic | > 10 | Non-toxic | Non-toxic
Cl.O=C(CCc1ccc(F)cc1)c1ccccc1O | Non-toxic | Non-toxic | > 10 | Non-toxic | Non-toxic
Cl.O=C(CCc1ccc(F)cc1)c1cc(F)ccc1O | Non-toxic | Non-toxic | > 10 | Non-toxic | Non-toxic
Cc1ccccc1N1CCN(CC(O)COc2ccc(F)cc2C(=O)CCc2ccc(F)cc2)CC1.Cl (racemic) | Non-toxic | Non-toxic | > 10 | Non-toxic | Non-toxic
Cc1cccc(N2CCN(CC(O)COc3ccc(F)cc3C(=O)CCc3ccc(F)cc3)CC2)c1.Cl (racemic) | Non-toxic | Non-toxic | > 10 | Non-toxic | Non-toxic
Cc1ccc(N2CCN(CC(O)COc3ccc(F)cc3C(=O)CCc3ccc(F)cc3)CC2)cc1.Cl (racemic) | Non-toxic | Non-toxic | > 10 | Non-toxic | Non-toxic
COc1ccccc1N1CCN(CC(O)COc2ccc(F)cc2C(=O)CCc2ccc(F)cc2)CC1.Cl (racemic) | Non-toxic | Non-toxic | > 10 | Non-toxic | Non-toxic
COc1cccc(N2CCN(CC(O)COc3ccc(F)cc3C(=O)CCc3ccc(F)cc3)CC2)c1.Cl (racemic) | Non-toxic | Non-toxic | > 10 | Non-toxic | Non-toxic
COc1ccc(N2CCN(CC(O)COc3ccc(F)cc3C(=O)CCc3ccc(F)cc3)CC2)cc1.Cl (racemic) | Non-toxic | Non-toxic | > 10 | Non-toxic | Non-toxic
Cl.O=C(CCc1ccc(F)cc1)c1cc(F)ccc1OCC(O)CN1CCN(c2ccccc2Cl)CC1 (racemic) | Non-toxic | Non-toxic | > 10 | Non-toxic | Non-toxic
Cl.O=C(CCc1ccc(F)cc1)c1cc(F)ccc1OCC(O)CN1CCN(c2ccc(Cl)cc2)CC1 (racemic) | Non-toxic | Non-toxic | > 10 | Non-toxic | Non-toxic
Cl.O=C(CCc1ccc(F)cc1)c1cc(F)ccc1OCC(O)CN1CCN(c2ccc(Cl)c(Cl)c2)CC1 (racemic) | Non-toxic | Non-toxic | > 10 | Non-toxic | Non-toxic
Cl.O=C(CCc1ccc(F)cc1)c1cc(F)ccc1OCC(O)CN1CCN(c2ccccc2F)CC1 (racemic) | Non-toxic | Non-toxic | > 10 | Non-toxic | Non-toxic
Cl.O=C(CCc1ccc(F)cc1)c1cc(F)ccc1OCC(O)CN1CCN(c2ccc(F)cc2)CC1 (racemic) | Non-toxic | Non-toxic | > 10 | Non-toxic | Non-toxic
Cl.O=C(CCc1ccc(F)cc1)c1cc(F)ccc1OCC(O)CN1CCN(c2ccc([N+](=O)[O-])cc2)CC1 (racemic) | Non-toxic | Non-toxic | > 10 | Non-toxic | Non-toxic

SMILES | Activity [1] | Activity [2] | selectivity ratio [3] | Activity [4] | Activity [5]
Cl.Nc1ccc(N2CCN(CC(O)COc3ccc(F)cc3C(=O)CCc3ccc(F)cc3)CC2)cc1 (racemic) | Non-toxic | Non-toxic | > 10 | Non-toxic | Non-toxic
Cl.O=C(CCc1ccc(F)cc1)c1cc(F)ccc1OCC(O)CN1CCN(c2ccc(O)cc2)CC1 (racemic) | Non-toxic | Non-toxic | > 10 | Non-toxic | Non-toxic
Cl.O=C(CCc1ccc(F)cc1)c1cc(F)ccc1OCC(O)CN1CCN(c2ccc(C(F)(F)F)cc2)CC1 (racemic) | Non-toxic | Non-toxic | > 10 | Non-toxic | Non-toxic
Cl.O=C(CCc1ccc(F)cc1)c1cc(F)ccc1OCC(O)CN1CCN(C(=O)c2ccccc2)CC1 (racemic) | Non-toxic | Non-toxic | > 10 | Non-toxic | Non-toxic
Cl.O=C(CCc1ccc(F)cc1)c1cc(F)ccc1OCC(O)CN1CCN(C(c2ccccc2)c2ccccc2)CC1 (racemic) | Non-toxic | Non-toxic | > 10 | Non-toxic | Non-toxic
CN1CCN(CC(O)COc2ccc(F)cc2C(=O)CCc2ccc(F)cc2)CC1.Cl (racemic) | Non-toxic | Non-toxic | > 10 | Non-toxic | Non-toxic
CCN1CCN(CC(O)COc2ccc(F)cc2C(=O)CCc2ccc(F)cc2)CC1.Cl (racemic) | Non-toxic | Non-toxic | > 10 | Non-toxic | Non-toxic
Cl.O=C(CCc1ccc(F)cc1)c1cc(F)ccc1OCC(O)CN1CCOCC1 (racemic) | Non-toxic | Non-toxic | > 10 | Non-toxic | Non-toxic
Cl.O=C(CCc1ccccc1)c1ccccc1OCC(O)Cn1ccc2ccccc21 (racemic) | Non-toxic | Non-toxic | > 10 | Non-toxic | Non-toxic
CC(C)c1nccn1CC(O)COc1ccccc1C(=O)CCc1ccccc1.Cl (racemic) | Non-toxic | Non-toxic | > 10 | Non-toxic | Non-toxic
Cl.O=C(CCc1ccccc1)c1ccccc1OCC(O)CC1CCCC1 (racemic) | Non-toxic | Non-toxic | > 10 | Non-toxic | Non-toxic
Cl.O=C(CCc1ccc(F)cc1)c1ccccc1OCC(O)Cn1ccc2ccccc21 (racemic) | Non-toxic | Non-toxic | > 10 | Non-toxic | Non-toxic
CC(C)c1nccn1CC(O)COc1ccccc1C(=O)CCc1ccc(F)cc1.Cl (racemic) | Non-toxic | Non-toxic | > 10 | Non-toxic | Non-toxic
Cl.O=C(CCc1ccc(F)cc1)c1ccccc1OCC(O)CC1CCCC1 (racemic) | Non-toxic | Non-toxic | > 10 | Non-toxic | Non-toxic
Cl.O=C(CCc1ccccc1)c1cc(F)ccc1OCC(O)Cn1ccc2ccccc21 (racemic) | Non-toxic | Non-toxic | > 10 | Non-toxic | Non-toxic
CC(C)c1nccn1CC(O)COc1ccc(F)cc1C(=O)CCc1ccccc1.Cl (racemic) | Non-toxic | Non-toxic | > 10 | Non-toxic | Non-toxic
Cl.O=C(CCc1ccccc1)c1cc(F)ccc1OCC(O)CC1CCCC1 (racemic) | Non-toxic | Non-toxic | > 10 | Non-toxic | Non-toxic
Cl.O=C(CCc1ccc(F)cc1)c1cc(F)ccc1OCC(O)Cn1ccc2ccccc21 (racemic) | Non-toxic | Non-toxic | > 10 | Non-toxic | Non-toxic
CC(C)c1nccn1CC(O)COc1ccc(F)cc1C(=O)CCc1ccc(F)cc1.Cl (racemic) | Non-toxic | Non-toxic | > 10 | Non-toxic | Non-toxic
Cl.O=C(CCc1ccc(F)cc1)c1cc(F)ccc1OCC(O)CC1CCCC1 (racemic) | Non-toxic | Non-toxic | > 10 | Non-toxic | Non-toxic
